# Data: US6770587B1, “Chain extended functionalized initiators and methods of preparing and using the same” (FMC Corporation, priority 2000, dated 2004)
# Legend:
# [1] = Storage of initiator solutions, observation of precipitate or crystals; type: physicochemical
# Procedure: The sample bottle was placed in a refrigerator at −1° C. for twenty-four hours.
# The sample bottle was placed in a refrigerator at −1° C. for twenty-four hours. […] This solution was transferred to a dry, one-liter pear shaped flask. A majority of the solvent was removed on the rotary evaporator, at full vacuum, with a bath temperature of 40° C. This afforded a dark amber oil, yield=154.85 grams.
# The sample bottle was placed in a refrigerator at −1° C. for twenty-four hours. […] This solution was transferred to a dry, one liter pear shaped flask. A majority of the solvent was removed on the rotary evaporator, at full vacuum, with a bath temperature of 40° C. This afforded a dark amber oil, yield=230.07 grams.
# The sample bottle was placed in a refrigerator at −2° C. for forty-eight hours.
# This solution was transferred to a dry, 500 ml., pear shaped flask. A majority of the solvent was removed on the rotary evaporator, at full vacuum, with a bath temperature of 40° C. This afforded a dark amber oil, yield=104.90 grams. Heptane, 6.11 grams, was added as a freezing point depressant.
# A one-liter three-necked Morton flask was equipped with a mechanical stirrer, Claisen adapter with an ice condenser and gas inlet, and a 250 milliliter pressure-equalizing dropping funnel. This apparatus was dried in an oven overnight at 125° C., assembled hot, and allowed to cool to room temperature in a stream of argon. Lithium metal dispersion was washed free of mineral oil with hexane (2×100 ml), and pentane (1×100 ml). The resultant lithium dispersion was dried in a stream of argon, weighed (12.22 grams, 1.76 moles, 2.80 equivalents), and transferred to the reaction flask with 550 ml of cyclohexane. The mechanical stirrer was set at an agitation rate of 500 RPMs, and the reaction mixture was heated to 80° C. with a hearing mantle. The heat source was removed. The dropping funnel was charged with 94.90 grams (0.63 moles, 1.00 equivalent) of the precursor. The precursor was added dropwise, at an approximate rate of 1.59 ml/min. The reaction temperature was maintained at 70° C. with a dry ice/hexane bath. The total halide feed time was 66 minutes. The reaction mixture was allowed to stir for one hour post-feed and maintained at a temperature of 67.5° C. with a heating mantle. Then isoprene, 22.89 grams ([…], 0.50 equivalents of isoprene) was added at a feed rate of approximately 1.58 ml/min. The temperature was maintained at 62.5° C. during and after the feed. The reaction stirred for two hours before it was cooled to room temperature and filtered through a medium porosity pressure filter. The lithium muds were washed with cyclohexane (2×70 ml). The filtration took 15 minutes. This afforded a clear, light yellow solution, 513.07 g, 650 ml. The sample was stored in 0° C. refrigerator. This solution was transferred to a dry, 1000 ml pear-shaped flask. Some solvent was removed on the rotary evaporator, at full vacuum, with a bath temperature of 30° C. This afforded a light yellow solution, yield=386.01 g, 550 ml.
# A one-liter three-necked Morton flask was equipped with a mechanical stirrer, Claisen adapter with an ice condenser and gas inlet, and a 250 milliliter pressure-equalizing dropping funnel. This apparatus was dried in an oven overnight at 125° C., assembled hot, and allowed to cool to room temperature in a stream of argon. Lithium metal dispersion was washed free of mineral oil with hexane (2×100 ml) and pentane (1×100 ml). The resultant lithium dispersion was dried in a stream of argon, weighed (13.90 grams, 2.00 moles, 2.80 equivalents), and transferred to the reaction flask with 400 ml of cyclohexane. The mechanical stirrer was set at an agitation rate of 500 RPMs, and the reaction mixture was heated to 80° C. with a heating mantle. The heat source was removed. The dropping funnel was charged with 107.82 grams (0.72 moles, 1.00 equivalent) of the precursor. The precursor was added dropwise, at an approximate rate of 0.71 ml/min. […]
# [2] = Solubility of initiator in cyclohexane with isoprene added as chain extension agent; type: physicochemical; settings: for solubility, Moles Active/Kg. / solubility, Moles Active/Liter: cyclohexane
# Procedure: For example, the solubility of 3-(1,1-dimethylethoxy)-1-propyllithium was investigated in cyclohexane at 0° C., with various amounts of isoprene added as a chain extension agent. The solubility data is collected in the table below:
# A similar impact on the solubility of 3-(hexamethyleneimino)-1-propyllithium in cyclohexane was obtained with the addition of limited amounts of isoprene.
# A one-liter three-necked Morton flask was equipped with a mechanical stirrer, Claisen adapter with an ice condenser and gas inlet, and a 250 milliliter pressure-equalizing dropping funnel. This apparatus was dried in an oven overnight at 125° C., assembled hot, and allowed to cool to room temperature in a stream of argon. Lithium metal dispersion was washed free of mineral oil with hexane (2×100 ml) and pentane (1×100 ml). The resultant lithium dispersion was dried in a stream of argon, weighed (13.90 grams, 2.00 moles, 2.80 equivalents), and transferred to the reaction flask with 400 ml of cyclohexane. The mechanical stirrer was set at an agitation rate of 500 RPMs, and the reaction mixture was heated to 80° C. with a heating mantle. The heat source was removed. The dropping funnel was charged with 107.82 grams (0.72 moles, 1.00 equivalent) of the precursor. The precursor was added dropwise, at an approximate rate of 0.71 ml/min. The reaction temperature was maintained at 70° C. with a dry ice/hexane bath. The total halide feed time was 162 minutes. The reaction mixture was allowed to stir for one hour post-feed, and maintained at a temperature of 70° C. with a heating mantle. Then isoprene, 98.20 grams ([…], […] of isoprene) was added at a feed rate of approximately 2.55 ml/min. The temperature was maintained at 62.5° C. during and after the feed. The reaction stirred for two hours before it was cooled to room temperature and filtered through a medium porosity pressure filter. The lithium muds were washed with cyclohexane (1×50 ml). The filtration took 15 minutes. This afforded a dark yellow solution, 647.08 grams, 850 ml. The sample was stored in 0° C. refrigerator. This solution was transferred to a dry, 1000 ml pear shaped flask. A majority of the solvent was removed on the rotary evaporator, at full vacuum, with a bath temperature of 30° C. This afforded a mobile, yellow oil, yield=307.92 g, 475 ml.
# [3] = non-chain extended initiator, cyclohexane (background statement); cited from earlier work
# [4] = 0° C., 0.00 isoprene equivalents
# [5] = 0° C., 0.50 isoprene equivalents
# [6] = 0° C., 0.75 isoprene equivalents
# [7] = 0° C., 1.00 isoprene equivalents
# [8] = 0° C., 2.00 isoprene equivalents
compound,measurement,setting,value
"[Li][CH2]CCN1CCCC1 [Example 4, 3-(Pyrrolidino)-1-Propyllithium]",precipitation on storage,"[1]; cyclohexane solution diluted with heptane, 9.53 wt. %, −2° C. for forty-eight hours",No solids had precipitated
"[Li][CH2]CCN1CCCCCC1 [Example 3, 3-(Hexamethyleneimino)-1-Propyllithium]",precipitation on storage,"[1]; concentrated solution, 35.74 wt. % (2.428 moles/kg), −1° C. for ten days",no precipitate was observed
"[Li][CH2]CCN1CCCCCC1 [Example 1, 3-(Hexamethyleneimino)-1-Propyllithium]",precipitation on storage,"[1]; cyclohexane solution as obtained, refrigerator at −1° C. for twenty-four hours",No solids had precipitated
same,precipitation on storage,"[1]; cyclohexane solution as obtained, storage overnight at 15° C.",no solids had precipitated
"[Li][CH2]CCN1CCCCCC1 [Example 2, 3-(Hexamethyleneimino)-1-Propyllithium]",precipitation on storage,"[1]; concentrated solution, 30.65 wt. % (2.083 moles/kg), −1° C. for one week",no precipitate was observed
"[Li][CH2]CCN1CCCC1 [Example 5, 3-(Pyrrolidino)-1-Propyllithium]",precipitation on storage,"[1]; concentrated solution with heptane, 24.14 wt %, −2° C. for four days",no solids had precipitated
same,precipitation on storage,"[1]; cyclohexane solution, 14.02 wt. %, overnight at −2° C.",no solids had precipitated
"[Li][CH2]CCOC(C)(C)C [Example 10, 3-(1,1-Dimethylethoxy)-1-propyllithium]",crystals on storage,"[1]; concentrated cyclohexane solution, 49.4 wt. % (1.91 mole/kg), storage in 0° C. refrigerator, maximum solubility",crystals were present
[Li][CH2]CCN1CCCCCC1 [3-(hexamethyleneimino)-1-propyllithium],"solubility, Moles Active/Kg.",[2]; 0.00 isoprene equivalents,0.20 Moles Active/Kg.
same,"solubility, Moles Active/Liter",[2]; 0.00 isoprene equivalents,0.16 Moles Active/Liter
same,"solubility, Moles Active/Kg.",[2]; 0.13 isoprene equivalents,0.64 Moles Active/Kg.
same,"solubility, Moles Active/Liter",[2]; 0.13 isoprene equivalents,0.51 Moles Active/Liter
same,"solubility, Moles Active/Kg.",[2]; 0.51 isoprene equivalents,2.08 Moles Active/Kg.
same,"solubility, Moles Active/Liter",[2]; 0.51 isoprene equivalents,1.62 Moles Active/Liter
same,"solubility, Moles Active/Kg.",[2]; 0.90 isoprene equivalents,2.43 Moles Active/Kg.
same,"solubility, Moles Active/Liter",[2]; 0.90 isoprene equivalents,2.01 Moles Active/Liter
same,"solubility, Moles Active/Kg.",[2]; 2.00 isoprene equivalents,2.75 Moles Active/Kg.
same,"solubility, Moles Active/Liter",[2]; 2.00 isoprene equivalents,2.28 Moles Active/Liter
same,precipitation on storage,"[1]; cyclohexane solution, 6.707 wt. % (0.4556 moles/kg), overnight at −5° C.",heavy white precipitate
same,maximum solubility in cyclohexane,[3],0.30 Molar
"[Li][CH2]CCOC(C)(C)C [Example 7, 3-(1,1-Dimethylethoxy)-1-propyllithium]",crystals on storage,"[1]; cyclohexane solution, 0° C. refrigerator, after one day",Crystals were present
"[Li][CH2]C(C)(C)CO[Si](C)(C)C [2,2-dimethyl-3-trimethylsilyloxy-1-propyllithium]",effect of chain extension on solubility,[2]; addition of less than one equivalent of the chain extension agent,increased the solubility
[Li][CH2]CCN1CCCC1 [3-(pyrrolidino)-1-propyllithium],precipitation on storage,"[1]; cyclohexane solution before chain extension, 14.63 wt. % (1.228 moles/kg), overnight at 20° C.",heavy white precipitate had formed
"[Li][CH2]CCOC(C)(C)CC [3-(1,1-dimethylpropyloxy)-1-propyllithium]",maximum solubility in cyclohexane,[3],0.30 Molar
"[Li][CH2]CCOC(C)(C)C [3-(1,1-dimethylethoxy)-1-propyllithium]","solubility, Moles Active/Kg.",[2]; [4],0.36 Moles Active/Kg.
same,"solubility, Moles Active/Liter",[2]; [4],0.30 Moles Active/Liter
same,"solubility, Moles Active/Kg.",[2]; [5],1.35 Moles Active/Kg.
same,"solubility, Moles Active/Liter",[2]; [5],1.06 Moles Active/Liter
same,"solubility, Moles Active/Kg.",[2]; [6],1.72 Moles Active/Kg.
same,"solubility, Moles Active/Liter",[2]; [6],1.33 Moles Active/Liter
same,"solubility, Moles Active/Kg.",[2]; [7],1.84 Moles Active/Kg.
same,"solubility, Moles Active/Liter",[2]; [7],1.42 Moles Active/Liter
same,"solubility, Moles Active/Kg.",[2]; [8],1.90 Moles Active/Kg.
same,"solubility, Moles Active/Liter",[2]; [8],1.46 Moles Active/Liter
